In assay [1] the test system is skin of hind limb toes of mice. The assay can be described thus: Chemotherapeutic drug-induced mouse models with hand-foot syndrome (Example 23). The class given is in vivo, ICR mice. To be noted: compound 2b 3% ointment topical or nicotinamide 100 mg/kg oral; for expression level of cytokine IL-8 in skin tissues of hind limb toes: capecitabine model; for thickening of the epidermal layer and the stratum corneum in the skin tissues (pathological staining) / swelling of the toes caused by the modeling drugs: capecitabine or docetaxel model; for swelling of the toes caused by the modeling drugs: once daily 16 days; for expression level of cytokine IL-6 in skin tissues of hind limb toes: docetaxel model. An excerpt: After adaptive feeding for 7 days, SPF-grade ICR mice (male, 5-6 weeks old, with a body weight of approximately 35 g) were randomly divided into groups, including a blank control group (6 mice), a capecitabine modeling group (6 mice), a docetaxel modeling group (6 mice), a capecitabine+compound 2b group (6 mice), a docetaxel+compound 2b group (6 mice), a capecitabine+nicotinamide group (6 mice), and a docetaxel+nicotinamide group (6 mice). The groups were respectively administered corresponding modeling drugs by oral gavage (capecitabine at 200 mg/kg and docetaxel at 25 mg/kg) once daily, and the blank control group was administered an equivalent volume of normal saline. After administration with the chemotherapeutic drugs for 2 weeks, the compound ointments (at a compound content of 3%) used in Example 22 were respectively applied topically in the groups, or nicotinamide was orally administered (100 mg/kg) once daily continuously for 16 days.
Measurement of the degree of swelling of toes: The degree of swelling of hind limb toes of the mice was measured using a toe swelling tester (KW-7C, Nanjing Calvin Biotechnology Co., Ltd.) before administration with the modeling drugs, after administration with the modeling drugs for 2 weeks, and before sacrifice, respectively. Before measurement, ankle joints of hind paws of the mice were marked at same positions before administration, after administration for 2 weeks, and before sacrifice. During measurement, water was properly located at the same level as the marked positions, and numerical values were recorded after becoming stable.
Pathological staining of skin tissues: Skin tissue samples were selected from hind limb toes of the mice and placed in 4% paraformaldehyde for fixation at room temperature for 4 hours. Then, the tissues were taken out and rinsed with running water for several hours. The samples were subjected to dehydration treatment with 70%, 80%, and 90% ethanol solutions, followed by treatment with a mixed solution of equal amounts of absolute alcohol and xylene for 15 minutes, and then permeabilized twice with a xylene solution for 15 minutes each time until the samples became transparent. The samples were placed in a mixture of half xylene and half paraffin for soaking for 15 minutes, and then, paraffin I and paraffin II were added for wax penetration for one hour, respectively. After embedding with paraffin, the samples were sectioned, baked, dewaxed, and hydrated. Then, the hydrated sections were placed in a hematoxylin solution (ZSGB-BIO, article No. 23041001) for staining for 3 minutes, and a differentiation solution of hydrochloric acid in ethanol was added for differentiation for 15 seconds. After rinsing with water, a Scott bluing solution (Servicebio, article No. 20230801) was added for bluing for 15 seconds. After rinsing with running water, the sections were stained with an eosin solution (Solarbio, article No. 33535) for 3 minutes, rinsed with running water, dehydrated, permeabilized, sealed, and inspected under a microscope.
Immunohistochemical staining: After baking, dewaxing, and hydration, paraffin sections of skin tissues of hind limb toes of the mice were subjected to antigen retrieval using a 0.2 M citric acid buffer solution (containing 1.534 g of citric acid, 3.1 g of sodium citrate, and 100 mL of distilled water, pH 4.7). Endogenous […] was removed using 3% hydrogen peroxide (Shandong Annjet High-Tech Disinfection Technology Co., Ltd., article No. 20290902), and the sections were incubated at room temperature for 10 minutes and then fully rinsed with a PBS buffer solution (containing 8 g of NaCl, 0.2 g of KCl, 1.44 g of Na2HPO4, and 1 M HCl, pH 7.4). The sections were permeabilized with 0.5% Triron-X-100 (AmyJet Scientific, article No. A-CSH436-100 mL), respectively permeabilized with mouse anti-IL-1β and rabbit IL-8 for 10 minutes, and not permeabilized with rabbit anti-IL-6. […]

The test system of assay [2] is HaCat cells. In words: m6A methylation level of drug-treated HaCat keratinocytes by nanopore sequencing (Example 14). The class given is cell-based, human. As to conditions: 50 nM drug, 24 hours. Here is the method: 1*10^8 HaCat cells were seeded in culture dishes, into which 50 nM drugs (including sorafenib, capecitabine, docetaxel, and osimertinib) were added, respectively. The cells were cultured in an incubator containing 5% CO2 at 37° C. for 24 hours and washed with PBS after culture media were removed. Centrifugation was performed, the supernatant was discarded, and then, 400 μL of an RLT cell lysis buffer (QIAGEN, Cat. #79216) was added. A portion of samples were selected, into which 400 μL of 70% ethanol was added. The mixture was evenly stirred and then transferred to an RNeasy mini column, and RNA was extracted using an RNeasy mini kit (QIAGEN, Cat. #74104). 2 μL of an RNA sample was selected and dissolved in 98 μL of a 10 mM Tris-HCl buffer solution, and the absorbance at 260 nm was measured using a Nanodrop (Thermo Fisher Scientific) to determine the RNA concentration.
40 μg of an RNA sample was selected for enrichment of mRNA (PolyA+RNA) using an NEBNext Poly(A) mRNA magnetic isolation module (NEB, Cat. #E7490), and then, a 3′ end of the above enriched mRNA (PolyA+RNA) molecule was ligated with reverse transcription adapter RTA using a direct RNA sequencing kit (Oxford Nanopore Technologies, Cat. #SQK-RNA002). A reverse transcription reaction was performed with the mRNA (PolyA+RNA) molecule as a template to synthesize a complementary strand, a terminal end of the reverse transcription adapter RTA was ligated with a sequencing adapter (RNA adapter) to form a final sequencing library, and quantitative detection was performed using a Qubit™ dsDNA HS assay kit (Invitrogen, Cat. #LOT2133187).
After quality inspection of the library, the prepared sequencing library was loaded onto a PromethION flow cell chip (Oxford Nanopore Technologies, Cat. #FLO-MIN106D), and placed in a PromethION sequencer (Oxford Nanopore Technologies) for sequencing by selecting a matched sequencing mode. Basecalling was performed on sequencing data through guppy, and m6A methylation analysis was performed on original fast5 data.

Each structure is given as a SMILES string.

As to `NC(=O)[C@H]1CCCc2c1[nH]c1ccc(Cl)cc21` [Compound 2b, (S)-6-chloro-2,3,4,9-tetrahydro-1H-carbazole-1-carboxamide], in assay [1], the “expression level of cytokine IL-8 in skin tissues of hind limb toes” value is reported as “significantly decrease”; the “thickening of the epidermal layer and the stratum corneum in the skin tissues (pathological staining)” value is “effectively alleviate”; the “swelling of the toes caused by the modeling drugs” value is “significantly alleviate”; the “expression level of cytokine IL-6 in skin tissues of hind limb toes” value is reported as “significantly decrease”.
For the compound `CNC(=O)c1cc(Oc2ccc(NC(=O)Nc3ccc(Cl)c(C(F)(F)F)c3)cc2)ccn1` [Sorafenib, sorafenib, reference compound], in assay [2], the “m6A methylation level of HaCat cells, increase compared with blank control group” value is given as 5.05 times.
On the same count and under the same terms, the result for `C=CC(=O)Nc1cc(Nc2nccc(-c3cn(C)c4ccccc34)n2)c(OC)cc1N(C)CCN(C)C` [Osimertinib, osimertinib, reference compound] reads 5.13 times.
On to `NC(=O)c1cccnc1` [Nicotinamide, nicotinamide], for which, in assay [1], the “expression level of cytokine IL-8 in skin tissues of hind limb toes” value is reported as “does not have a significant impact”; the “thickening of the epidermal layer and the stratum corneum in the skin tissues (pathological staining)” value is recorded as “mildly alleviates”; the “swelling of the toes caused by the modeling drugs” value is “not observed that oral administration of the nicotinamide at 100 mg/kg significantly alleviates the swelling”; the “expression level of cytokine IL-6 in skin tissues of hind limb toes” value is listed as “does not have a significant impact”.

For the origin of these results see patent US20260226006A1, “INDOLE COMPOUND, PREPARATION METHOD THEREFOR AND USE THEREOF” (SUZHOU MERNA THERAPEUTICS CO. LTD, priority 2023, published 2026).
